Measurements: patent US9199959B2, “HIV replication inhibitor” (Shionogi & Co., Ltd., priority 2011, dated 2015)

Assays:
CYP2D6 = biological target: T1, CYP2D6 (Homo sapiens, UniProt P10635); assay: CYP inhibition assay, dextromethorphan O-demethylation; format: in vitro ADME; settings: pooled human liver microsomes, probe dextromethorphan (O-demethylation), 5 μmol/L, pooled human hepatic microsome
T1 construct: enzyme, pooled human hepatic microsome 0.2 mg protein/mL; from tissue; host or cells: pooled human liver microsomes
T1 sequence (P10635 whole entry): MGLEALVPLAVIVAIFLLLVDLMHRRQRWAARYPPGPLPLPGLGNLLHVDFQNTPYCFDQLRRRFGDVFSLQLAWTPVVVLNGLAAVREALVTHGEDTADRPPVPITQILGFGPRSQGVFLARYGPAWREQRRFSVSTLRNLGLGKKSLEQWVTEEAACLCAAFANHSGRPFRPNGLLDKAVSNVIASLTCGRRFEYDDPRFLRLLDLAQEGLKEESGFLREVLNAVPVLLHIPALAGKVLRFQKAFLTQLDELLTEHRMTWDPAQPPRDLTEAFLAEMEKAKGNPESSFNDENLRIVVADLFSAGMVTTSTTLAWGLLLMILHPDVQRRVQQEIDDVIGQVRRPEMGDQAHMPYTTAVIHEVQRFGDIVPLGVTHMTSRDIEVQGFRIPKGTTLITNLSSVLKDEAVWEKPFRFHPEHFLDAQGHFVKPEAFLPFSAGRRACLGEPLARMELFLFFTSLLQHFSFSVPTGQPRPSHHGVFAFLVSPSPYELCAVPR
Protocol: (§1) Using commercially available pooled human hepatic microsome, and employing, as markers, 7-ethoxyresorufin O-deethylation (CYP1A2), tolbutamide methyl-hydroxylation (CYP2C9), mephenytoin 4′-hydroxylation (CYP2C19), dextromethorphan O-demethylation (CYP2D6), and terfenedine hydroxylation (CYP3A4) as typical substrate metabolism reactions of human main five CYP enzyme forms (CYP1A2, 2C9, 2C19, 2D6, 3A4), an inhibitory degree of each metabolite production amount by a test compound was assessed.
(§2) The reaction conditions were as follows: substrate, 0.5 μmol/L ethoxyresorufin (CYP1A2), 100 μmol/L tolbutamide (CYP2C9), 50 μmol/L S-mephenytoin (CYP2C19), 5 μmol/L dextromethorphan (CYP2D6), 1 μmol/L terfenedine (CYP3A4); reaction time, 15 minutes; reaction temperature, 37° C.; enzyme, pooled human hepatic microsome 0.2 mg protein/mL; test drug concentration, 1, 5, 10, 20 μmol/L (four points).
(§3) Each five kinds of substrates, human hepatic microsome, and a test drug in 50 mmol/L Hepes buffer as a reaction solution was added to a 96-well plate as the composition as described above, NADPH, as a cofactor was added to initiate metabolism reactions as markers and, after the incubation at 37° C. for 15 minutes, a methanol/acetonitrile=1/1 (v/v) solution was added to stop the reaction. After the centrifugation at 3000 rpm for 15 minutes, resorufin (CYP1A2 metabolite) in the supernatant was quantified by a fluorescent multilabel counter and tolbutamide hydroxide (CYP2C9 metabolite), mephenytoin 4′ hydroxide (CYP2C19 metabolite), dextrorphan (CYP2D6 metabolite), and terfenadine alcohol (CYP3A4 metabolite) were quantified by LC/MS/MS.
(§4) A reaction system containing only DMSO which is a solvent for dissolving a drug was adopted as a control (100%), and the remaining activity (%) was calculated, then IC50 was calculated by reverse presumption with a logistic model using a concentration and an inhibition rate.

CYP1A2 = biological target: T2, CYP1A2 (Homo sapiens, UniProt P05177); assay: CYP inhibition assay, 7-ethoxyresorufin O-deethylation; format: in vitro ADME; settings: pooled human liver microsomes, probe 7-ethoxyresorufin (O-deethylation), 0.5 μmol/L, pooled human hepatic microsome
T2 construct: enzyme, pooled human hepatic microsome 0.2 mg protein/mL; from tissue; host or cells: pooled human liver microsomes
T2 sequence (P05177 1-516): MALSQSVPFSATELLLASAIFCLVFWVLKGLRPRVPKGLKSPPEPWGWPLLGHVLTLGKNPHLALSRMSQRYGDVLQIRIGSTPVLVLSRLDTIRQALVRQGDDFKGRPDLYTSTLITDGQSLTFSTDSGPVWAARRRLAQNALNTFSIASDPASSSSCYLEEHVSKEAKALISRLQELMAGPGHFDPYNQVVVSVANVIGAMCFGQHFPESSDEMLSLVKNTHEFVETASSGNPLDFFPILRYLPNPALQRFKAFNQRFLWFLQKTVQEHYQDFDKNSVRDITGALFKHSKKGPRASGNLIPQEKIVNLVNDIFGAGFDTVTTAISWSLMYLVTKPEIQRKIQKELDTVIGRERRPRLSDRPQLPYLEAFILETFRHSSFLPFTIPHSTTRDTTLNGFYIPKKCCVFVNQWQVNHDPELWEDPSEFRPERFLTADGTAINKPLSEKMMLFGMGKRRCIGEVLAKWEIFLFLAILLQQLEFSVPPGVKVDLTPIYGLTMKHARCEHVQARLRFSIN
Protocol: as §1, §2, §3, §4

CYP2C19 = biological target: T3, CYP2C19 (Homo sapiens, UniProt P33261); assay: CYP inhibition assay, mephenytoin 4'-hydroxylation; format: in vitro ADME; settings: pooled human liver microsomes, probe S-mephenytoin (4'-hydroxylation), 50 μmol/L, pooled human hepatic microsome
T3 construct: enzyme, pooled human hepatic microsome 0.2 mg protein/mL; from tissue; host or cells: pooled human liver microsomes
T3 sequence (P33261 whole entry): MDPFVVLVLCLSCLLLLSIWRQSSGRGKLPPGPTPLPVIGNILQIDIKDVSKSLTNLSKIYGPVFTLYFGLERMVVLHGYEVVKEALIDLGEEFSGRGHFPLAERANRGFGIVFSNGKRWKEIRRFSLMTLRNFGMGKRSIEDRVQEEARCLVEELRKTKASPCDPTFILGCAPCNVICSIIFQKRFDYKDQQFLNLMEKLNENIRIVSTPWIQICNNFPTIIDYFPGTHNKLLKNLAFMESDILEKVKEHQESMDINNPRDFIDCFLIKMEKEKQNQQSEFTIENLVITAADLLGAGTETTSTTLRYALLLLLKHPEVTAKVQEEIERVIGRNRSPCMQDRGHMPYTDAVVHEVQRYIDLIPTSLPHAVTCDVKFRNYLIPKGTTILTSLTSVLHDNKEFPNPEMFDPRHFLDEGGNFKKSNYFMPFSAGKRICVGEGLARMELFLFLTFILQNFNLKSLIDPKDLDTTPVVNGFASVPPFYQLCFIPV
Protocol: as §1, §2, §3, §4

CYP3A4 = biological target: T4, CYP3A4 (Homo sapiens, UniProt P08684); assay: CYP inhibition assay, terfenedine hydroxylation; format: in vitro ADME; settings: pooled human liver microsomes, probe terfenedine (hydroxylation), 1 μmol/L, pooled human hepatic microsome
T4 construct: enzyme, pooled human hepatic microsome 0.2 mg protein/mL; from tissue; host or cells: pooled human liver microsomes
T4 sequence (P08684 whole entry): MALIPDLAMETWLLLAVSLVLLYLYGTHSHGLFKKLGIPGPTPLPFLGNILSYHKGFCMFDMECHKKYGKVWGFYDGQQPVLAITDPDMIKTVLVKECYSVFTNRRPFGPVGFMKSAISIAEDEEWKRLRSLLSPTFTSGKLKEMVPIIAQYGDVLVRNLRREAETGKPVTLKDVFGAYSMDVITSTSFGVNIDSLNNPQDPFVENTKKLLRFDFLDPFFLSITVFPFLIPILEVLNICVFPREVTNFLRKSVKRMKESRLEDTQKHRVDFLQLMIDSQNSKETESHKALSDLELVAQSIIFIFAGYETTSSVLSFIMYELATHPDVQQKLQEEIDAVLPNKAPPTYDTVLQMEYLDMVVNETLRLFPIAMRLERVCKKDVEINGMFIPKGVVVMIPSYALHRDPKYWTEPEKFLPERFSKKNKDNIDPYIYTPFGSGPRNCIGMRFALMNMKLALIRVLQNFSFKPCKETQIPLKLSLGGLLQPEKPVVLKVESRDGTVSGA
Protocol: as §1, §2, §3, §4

HIV (HTLV-III B strain) = assay: HIV replication inhibition assay (MTT, MT-4 cells); format: cell-based; settings: Human immunodeficiency virus 1, MT4, 96 h, four days culture, concentration at which cell cytotoxicity by virus is inhibited 50%
Protocol: HIV (HTLV-III B strain) persistent infected human T cell strain Molt-4 clone 8 was cultured in 10% Fetal Bovine Serum-containing RPMI-1640 medium and the supernatant was filtrated, then the virus titer was measured and the solution was stored at −80° C. Each anti-human immunodeficiency virus active substance was diluted with the above cultured medium to the designated concentration, which was dispensed into 96 well micro plate by 50 μL. Next, a MT-4 cell suspended liquid was dispensed by 100 μL (2.5×10^4 cells), then the above HIV-containing supernatant diluted with the above cultured medium was added thereto by 50 μL (60 pfu (plaque forming unit)).
The obtained mixture was cultured at 37° C. in CO2 incubator for four days, then 3-(4,5-dimehylthiazole-2-yl)-2,5-diphenyltetrazolynium bromide (MTT) 5 mg/mL in PBS was added to each well by 30 μL, followed by 1 hr-cultivation. In this step, as formazan was precipitated by reduction of MTT in living cells, the cell supernatant was removed from all well by 150 μL, then a 150 μL of solution (10% Triton X-100 and […]) was added thereto, followed by shaking with a plate mixer, to elute formazan. The formazan was measured with a microreader at OD: 560 nm and 690 nm (wavelength) and the result was compared with the reference. EC50 means the compound concentration at which cell cytotoxicity by virus is inhibited 50%.

[1] = Solubility test, 1% DMSO addition, artificial intestinal juice pH 6.8; format: physicochemical; settings: artificial intestinal juice with 1% DMSO, fassgf or other biorelevant, kinetic from dmso stock; pH 6.8, 1% DMSO addition, 16 hours at 25° C.
Protocol: The solubility of each compound was determined under 1% DMSO addition conditions. A 10 mmol/L solution of the compound was prepared with DMSO, and 6 μL of the solution was added to 594 μL of an artificial intestinal juice (water and a 118 mL solution of 0.2 mol/L NaOH reagent are added to 250 mL of 0.2 mol/L potassium dihydrogen phosphate reagent to reach 1000 mL) with a pH of 6.8. The mixture is left standing for 16 hours at 25° C., and the mixture is vacuum-filtered. The filtrate is two-fold diluted with methanol/water=1/1 (v/v), and the compound concentration in the filtrate is measured with HPLC or LC/MS/MS by the absolute calibration method.

| IC50 at 15 min (CYP2D6) | IC50 at 15 min (CYP1A2) | IC50 at 15 min (CYP2C19) | IC50 at 15 min (CYP3A4) | solubility at 16 h [1] | SMILES | EC50 (HIV (HTLV-III B strain)) |
| --- | --- | --- | --- | --- | --- | --- |
| ≥ 20000 nM | ≥ 20000 nM | ≥ 20000 nM | ≥ 20000 nM |  | Cc1ccc(-c2c(C)c(-c3ccc(C)c(C)c3)c(C(OC(C)(C)C)C(=O)O)c(C)c2N)cc1C (stereo not shown) [Compound I-7] | 18 nM |
| ≥ 20000 nM | ≥ 20000 nM | ≥ 20000 nM | ≥ 20000 nM |  | CC(=O)N(C)c1c(C)c(C(OC(C)(C)C)C(=O)O)c(-c2ccc(C)c(C)c2)c(C)c1-c1ccc(C)c(C)c1 (stereo not shown) [Compound I-8] |  |
|  |  |  |  |  | Cc1cc2c(c(C(OC(C)(C)C)C(=O)O)c1-c1ccc3c(c1)CCCO3)CCCN2S(=O)(=O)c1cccc2cccnc12 (stereo not shown) [II-17] | 2.5 nM |
|  |  |  |  |  | Cc1cc2c(c(C(OC(C)(C)C)C(=O)O)c1-c1ccc3c(c1)CCCO3)CCCN2S(=O)(=O)c1cccc2ccccc12 (stereo not shown) [II-14] | 4.8 nM |
|  |  |  |  |  | Cc1cc(NS(=O)(=O)CC2CCCCC2)c(C)c(C(OC(C)(C)C)C(=O)O)c1-c1ccc2c(c1)CCCO2 (stereo not shown) [Compound I-82] | 4.1 nM |
| ≥ 20000 nM | ≥ 20000 nM | ≥ 20000 nM | ≥ 20000 nM | ≥ 50 µM | CC(=O)Nc1cc(C(OC(C)(C)C)C(=O)O)c(-c2ccc(C)c(C)c2)c(C)c1-c1ccc(C)c(C)c1 (stereo not shown) [Compound I-3] |  |
|  |  |  |  |  | COc1ccc(-c2c(C)cc(NS(=O)(=O)CC3CCCCC3)c(C)c2C(OC(C)(C)C)C(=O)O)cc1 (stereo not shown) [Compound I-285] | 4.5 nM |
| ≥ 20000 nM | ≥ 20000 nM | ≥ 20000 nM | ≥ 20000 nM |  | Cc1ccc(-c2c(C(OC(C)(C)C)C(=O)O)cc(N(C)C(=O)C(C)C)c(-c3ccc(C)c(C)c3)c2C)cc1C (stereo not shown) [Compound I-9] |  |
| ≥ 20000 nM | ≥ 20000 nM | ≥ 20000 nM | ≥ 20000 nM |  | COC(=O)Nc1cc(C(OC(C)(C)C)C(=O)O)c(-c2ccc(C)c(C)c2)c(C)c1-c1ccc(C)c(C)c1 (stereo not shown) [Compound I-5] |  |
| ≥ 20000 nM | ≥ 20000 nM | ≥ 20000 nM | ≥ 20000 nM | ≥ 50 µM | Cc1ccc(-c2c(NC(=O)C(C)C)cc(C(OC(C)(C)C)C(=O)O)c(-c3ccc(C)c(C)c3)c2C)cc1C (stereo not shown) [Compound I-10] |  |
|  |  |  |  |  | Cc1c(-c2c(C)c(C)c(NS(=O)(=O)c3cccc4ccccc34)c(C)c2C(OC(C)(C)C)C(=O)O)ccc2c1CCCO2 (stereo not shown) [Compound I-140] | 1.9 nM |
|  |  |  |  |  | Cc1cc(NS(=O)(=O)c2cccc3ccccc23)c(C)c(C(OC(C)(C)C)C(=O)O)c1-c1ccc2c(c1)CCCO2 (stereo not shown) [Compound I-60] | 4 nM |
|  |  |  |  |  | Cc1cc(NS(=O)(=O)c2cccc(Cl)c2Cl)c(C)c(C(OC(C)(C)C)C(=O)O)c1-c1ccc2c(c1)CCCO2 (stereo not shown) [Compound I-121] | 5.2 nM |
|  |  |  |  |  | Cc1c(-c2c(C)c(C)c(NS(=O)(=O)c3cccc4ccccc34)c(C)c2[C@H](OC(C)(C)C)C(=O)O)ccc2c1CCCO2 [Compound I-145] | 1.2 nM |
|  |  |  |  |  | Cc1c(OCc2ccccc2)c(N(C)S(C)(=O)=O)c(C)c(C(OC(C)(C)C)C(=O)O)c1-c1ccc2c(c1)CCCO2 (stereo not shown) [Compound I-263] | 2.5 nM |
| ≥ 20000 nM | ≥ 20000 nM | ≥ 20000 nM | ≥ 20000 nM | ≥ 50 µM | Cc1ccc(-c2c(N)cc(C(OC(C)(C)C)C(=O)O)c(-c3ccc(C)c(C)c3)c2C)cc1C (stereo not shown) [Compound I-2] |  |
|  |  |  |  |  | CNc1c(C)c(C(OC(C)(C)C)C(=O)O)c(-c2ccc(C)c(C)c2)c(C)c1-c1ccc(C)c(C)c1 (stereo not shown) [Compound I-14] | 19 nM |
|  |  |  |  |  | Cc1cc(NS(=O)(=O)CC2CCCCC2)c(C)c(C(OC(C)(C)C)C(=O)O)c1-c1ccc2c(c1C)CCCO2 (stereo not shown) [Compound I-150] | 2.3 nM |
| ≥ 20000 nM | ≥ 20000 nM | ≥ 20000 nM | ≥ 20000 nM | ≥ 50 µM | CC(=O)Nc1c(Br)c(C(OC(C)(C)C)C(=O)O)c(-c2ccc(C)c(C)c2)c(C)c1-c1ccc(C)c(C)c1 (stereo not shown) [Compound I-4] | 13 nM |
|  |  |  |  |  | Cc1cc(NS(=O)(=O)c2cccc3cccnc23)c(C)c(C(OC(C)(C)C)C(=O)O)c1-c1ccc2c(c1)CCCO2 (stereo not shown) [Compound I-66] | 4.5 nM |
|  |  |  |  |  | Cc1cc(-c2c(C)c(-c3cc(F)c4c(c3C)CCCO4)c([C@H](OC(C)(C)C)C(=O)O)c(C)c2NS(C)(=O)=O)ccc1F [Compound I-310] | 4 nM |
|  |  |  |  |  | Cc1ccc(-c2c(C)c(-c3ccc(C)c(C)c3)c3c(c2[C@H](OC(C)(C)C)C(=O)O)CCC(=O)N3C)cc1C [II-42] | 4.4 nM |
|  |  |  |  |  | Cc1ccc(-c2c(C)c(C3=CCCCCC3)c(C(OC(C)(C)C)C(=O)O)c(C)c2NS(C)(=O)=O)cc1C (stereo not shown) [Compound I-168] | 3.9 nM |
|  |  |  |  |  | Cc1cc(-c2c(C)c(-c3ccc4c(c3C)CCCO4)c([C@H](OC(C)(C)C)C(=O)O)c(C)c2NS(C)(=O)=O)ccc1F [Compound I-305] | 2 nM |
|  |  |  |  |  | Cc1ccc(-c2c(C)c(-c3ccc4c(c3C)CCCO4)c(C(OC(C)(C)C)C(=O)O)c(C)c2NS(C)(=O)=O)cc1C (stereo not shown) [Compound I-215] | 2.2 nM |
